MIC data for eight molecules are collected here from patent US20230203081A1, “LINCOSAMIDE ANTIBIOTICS AND USES THEREOF” (President and Fellows of Harvard College, priority 2020, published 2023).

In brackets after ≈: the same amount, converted by molar mass. Where two headings read alike, the source gives them in different places. Bounds are passed on as bounds.

Holding throughout (type): cell-based
In assay [1] the test system is E. faecium Line R & VRE. Briefly: MIC (broth microdilution or agar dilution, CLSI). The procedure, abridged:
(§1)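 CLSI MIC, broth microdilution or agar dilution; compound 128-0.06 μg/mL, 2.5% DMSO final; triplicate. Anaerobes (e.g. clostridia) and streptococci run by specialized procedures. Other strains: overnight 35° C on blood agar, CaMHB, 0.5 McFarland, inoculum 5×10^5 CFU/mL.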

The subject of assay [2] is A. baumannii ATCC 19606. Kind of assay: MIC (broth microdilution or agar dilution, CLSI). A digest of the protocol: (§2)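 Isolates other than streptococci and anaerobes, which had their own procedures, were grown overnight at 35° C on tryptic soy agar with 5% sheep blood. Suspensions were then diluted to a final inoculum of 5×10^5 CFU/mL in broth microdilution wells.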
Background: Broth dilution looks for growth in wells or tubes with falling amounts of substance.

Assay [3] deals with S. aureus MP-549 msrA. Kind of assay: microbe, parasite or virus in culture. The procedure, abridged:
as §2

In assay [4] the test system is S. aureus BAA 977 iErmA. Kind of assay: microbe, parasite or virus in culture. The procedure, abridged:
as §2

The test system of assay [5] is E. coli ΔTolC. Briefly: microbe, parasite or virus in culture. A digest of the protocol:
as §2

The test system of assay [6] is P. aeruginosa ΔAmex OprM. Kind of assay: MIC (broth microdilution or agar dilution, CLSI). A digest of the protocol: as §1
For assay [7], the system named is P. aeruginosa ATCC 27853. Kind of assay: MIC (broth microdilution or agar dilution, CLSI). A digest of the protocol: as §1
The subject of assay [8] is S. aureus cErmA. Briefly: MIC (broth microdilution or agar dilution, CLSI). The conditions noted are these: Staphylococcus aureus. A digest of the protocol: as §1
Assay [9] relates to E. coli MP-74 LptD mutant. Briefly: MIC (broth microdilution or agar dilution, CLSI). The conditions noted are these: Escherichia coli. A digest of the protocol: as §1
For assay [10], the system named is E. faecium Clinical VRE. Briefly: MIC (broth microdilution or agar dilution, CLSI). The conditions noted are these: Enterococcus faecium, VRE. A digest of the protocol:
as §1

For assay [11], the system named is B. fragilis ATCC 25285. Briefly: MIC (broth microdilution or agar dilution, CLSI). The conditions noted are these: Bacteroides fragilis, read-out: MIC. The procedure, abridged:
as §1

The test system of assay [12] is C. difficile ATCC 700057. Kind of assay: MIC (broth microdilution or agar dilution, CLSI). The procedure, abridged:
as §1

Assay [13] deals with C. scindens ATCC 35704. Kind of assay: MIC (broth microdilution or agar dilution, CLSI). A digest of the protocol:
as §1

Assay [14] deals with S. aureus MRSA. Kind of assay: MIC (broth microdilution or agar dilution, CLSI). Particulars: Staphylococcus aureus. The procedure, abridged: as §1
Assay [15] concerns E. faecium VRE. Kind of assay: MIC (broth microdilution or agar dilution, CLSI). The conditions noted are these: Enterococcus faecium, VRE. A digest of the protocol: as §1
Assay [16] deals with E. faecalis VRE. Kind of assay: MIC (CLSI), third E. faecalis VRE line of Table 4. Particulars: Enterococcus faecalis, VRE. How it is done: (§3) Minimum inhibitory concentrations (MICs) were determined by broth microdilution method or agar dilution method following the Clinical and Laboratory Standards Institute guidelines. Standard bacterial strains were obtained from American Type Culture Collection (ATCC). Other bacterial strains were obtained from hospitals and commercial sources, so noted in Table 11. Before the start of the MIC experiment, standard and test compound stock solutions were prepared in dimethyl sulfoxide (DMSO, Aldrich D2650) at a stock concentration of 5,120 μg/mL. The compound concentration range typically employed for each experiment was 128-0.06 μg/mL (2.5% final DMSO concentration). Clindamycin was used as a comparator in all experiments and each experiment was performed in triplicate. Specialized procedures were employed for streptococcal and anaerobic strains. All other bacterial strains were sub-cultured on blood agar plates (tryptic soy agar with 5% sheep blood, Hardy Diagnostics) and incubated overnight at 35° C. Organisms were suspended in cation-adjusted Mueller-Hinton broth (CaMHB, BD 212322) and optical density was adjusted to 0.5 McFarland standard. Suspensions were further diluted to obtain a final inoculum of 5×10^5 CFU/mL for broth microdilution experiments.

Assay [17] deals with Escherichia coli c-ermB. Briefly: MIC, clinically derived E. coli with acquired resistance. The conditions noted are these: Escherichia coli. How it is done:
as §3

Assay [18] has as its system E. coli strain SQ110DTC. Briefly: MIC in LB medium against E. coli SQ110DTC and its FSA-513018b-resistant mutants (Table 14). The conditions noted are these: Escherichia coli.
Assay [19] concerns E. faecalis VRE. Briefly: MIC (CLSI), second E. faecalis VRE line of Table 4. Particulars: Enterococcus faecalis, VRE. How it is done: as §3
The subject of assay [20] is H. influenzae ATCC 49247. Kind of assay: MIC (broth microdilution or agar dilution, CLSI). Particulars: Haemophilus influenzae, ATCC49247. The procedure, abridged:
as §2

Where [21] appears, read: Enterococcus faecium, E. faecium HAV#319, Line R & Vanco R, read-out: MIC.
Setting [22] is: Acinetobacter baumannii, ATCC19606, A. baumanii HAV#010, ATCC 19606, read-out: MIC.
Where [23] appears, read: Staphylococcus aureus, MP549MSRA, S. aureus HAV#032, MP-549, MSR(A), read-out: MIC.
Setting [24] is: Staphylococcus aureus, BAA-977 / MRSA.
The mark [25] stands for this setting: Escherichia coli, E. coli HAV#038, ΔTolC.
The mark [26] stands for this setting: Pseudomonas aeruginosa, ATCC27853, P. aeruginosa HAV#009, ATCC 27853, read-out: MIC.
Where [27] appears, read: Staphylococcus aureus, MP549MSRA, S. aureus HAV#032, MP-549, MSR(A).
Where [28] appears, read: P. aeruginosa HAV#039, ΔAmex OprM.
[29] abbreviates: P. aeruginosa HAV#009, ATCC 27853.
[30] abbreviates: E. faecium HAV#319, Line R & Vanco R.
[31] abbreviates: A. baumanii HAV#010, ATCC 19606.
[32] abbreviates: Staphylococcus aureus, BAA-977 / MRSA, 24 h.

As to `CC[C@H]1OC(=O)[C@H](C)[C@@H](O[C@H]2C[C@@](C)(OC)[C@@H](O)[C@H](C)O2)[C@H](C)[C@@H](O[C@@H]2O[C@H](C)C[C@H](N(C)C)[C@H]2O)[C@](C)(O)C[C@@H](C)CN(C)[C@H](C)[C@@H](O)[C@]1(C)O` [Azithromycin], the MIC in assay [1] (setting [21]) is 8 µg/mL (≈ 10.7 µM); in [2] (setting [22]), 64 µg/mL (≈ 85.4 µM); in [3] (setting [23]) it was over 64 µg/mL; in assay [4] (setting [24]) it was over 64 µg/mL; in [5] (setting [25]) it was 1 µg/mL (≈ 1.34 µM).
Take `CO/N=C(\C(=O)N[C@@H]1C(=O)N2C(C(=O)O)=C(CSc3nc(=O)c(=O)[nH]n3C)CS[C@H]12)c1csc(N)n1` [Ceftriaxone]: the MIC is 16 µg/mL (≈ 28.9 µM) in assay [6] (Pseudomonas aeruginosa); over 64 µg/mL in assay [7] (setting [26]); over 256 µg/mL in assay [1] (setting [21]); over 128 µg/mL in [3] (setting [27]); 2 µg/mL (≈ 3.61 µM) in [4] (setting [24]); at most 0.06 µg/mL in assay [5] (setting [25]).
As for `CCC[C@@H]1C[C@@H](C(=O)N[C@@H]([C@H]2O[C@H](SC)[C@H](O)[C@@H](O)[C@H]2O)[C@H](C)Cl)N(C)C1` [Clindamycin, clindamycin, reference compound], the MIC in assay [8] is over 128 µg/mL; in assay [9] it was 4 µg/mL (≈ 9.41 µM); in assay [10], over 128 µg/mL; in [11] (ATCC25285, B. fragilis ATCC 25285), 1 µg/mL (≈ 2.35 µM); in [11] (ATCC25285, B. fragilis HAV#013, ATCC 25285) it was 0.5 µg/mL (≈ 1.18 µM); in [12] (C. difficile HAV#011, ATCC 700057), 8 µg/mL (≈ 18.8 µM). Further, the MIC in [12] (Clostridioides difficile, ATCC700057, C. difficile ATCC 700057, read-out: MIC) was 8 µg/mL (≈ 18.8 µM); in assay [6] (setting [28]), 32 µg/mL (≈ 75.3 µM); in assay [6] (Pseudomonas aeruginosa), 32 µg/mL (≈ 75.3 µM); in assay [7] (setting [29]) it was over 128 µg/mL; in [7] (Pseudomonas aeruginosa, ATCC27853), over 128 µg/mL; in assay [1] (setting [30]), over 128 µg/mL. Also, the MIC was over 128 µg/mL in [1] (Enterococcus faecium); 2 µg/mL (≈ 4.71 µM) in assay [13] (C. scindens HAV#012, ATCC 35704); 2 µg/mL (≈ 4.71 µM) in assay [13] ([Clostridium] scindens, ATCC35704, C. scindens ATCC 35704, read-out: MIC); 0.25 µg/mL (≈ 0.588 µM) in assay [14]; over 128 µg/mL in assay [15]; over 128 µg/mL in [16]. Also, the MIC in assay [2] (setting [31]) was over 128 µg/mL; in [2] (Acinetobacter baumannii, ATCC19606) it was over 128 µg/mL; in [17] it was over 128 µg/mL; in [3] (Staphylococcus aureus, MP549MSRA, S. aureus MP-549 msrA), 0.12 µg/mL (≈ 0.282 µM); in [3] (setting [27]) it was 0.125 µg/mL (≈ 0.294 µM); in [4] (Staphylococcus aureus, BAA977), 0.12 µg/mL (≈ 0.282 µM). For the same molecule, the MIC in assay [4] (setting [24]) is 0.125 µg/mL (≈ 0.294 µM); in assay [4] (setting [32]) it was over 128 µg/mL; in [5] (Escherichia coli, E. coli ΔTolC) it was 4 µg/mL (≈ 9.41 µM); in assay [18] (E. coli SQ110DTC, WT), 16 µg/mL (≈ 37.6 µM); in assay [18] (clone SA-3R1, mutation 2058G, selection plate 1 μg/mL FSA-513018b), over 128 µg/mL; in [18] (clone SA-3R2, mutation 2059G, selection plate […] FSA-513018b) it was over 128 µg/mL. The MIC in assay [18] (clone SA-3R9, mutation 2058G, selection plate […] FSA-513018b) was over 128 µg/mL; in assay [18] (clone SA-3R13, mutation 2059G, selection plate 1 μg/mL FSA-513018b), over 128 µg/mL; in assay [19], over 128 µg/mL.
Regarding `C[C@H]1c2cccc(O)c2C(=O)C2=C(O)[C@]3(O)C(=O)C(C(N)=O)=C(O)[C@@H](N(C)C)[C@@H]3[C@@H](O)[C@@H]21` [Doxycycline], the results for the MIC in [3] (setting [23]) and in assay [4] (setting [24]) were 8 µg/mL (≈ 18 µM) and 0.25 µg/mL (≈ 0.563 µM), respectively.
For the molecule `C[C@H]1COc2c(N3CCN(C)CC3)c(F)cc3c(=O)c(C(=O)O)cn1c23` [Levofloxacin], the MIC in [6] (Pseudomonas aeruginosa) is 0.125 µg/mL (≈ 0.346 µM); in assay [7] (setting [26]) it was 2 µg/mL (≈ 5.53 µM); in assay [2] (setting [22]), 1 µg/mL (≈ 2.77 µM); in assay [3] (setting [23]), 1 µg/mL (≈ 2.77 µM); in [4] (setting [24]), 0.5 µg/mL (≈ 1.38 µM); in [5] (setting [25]) it was at most 0.06 µg/mL.
In the case of `CC(=O)NC[C@H]1CN(c2ccc(N3CCOCC3)c(F)c2)C(=O)O1` [Linezolid], the MIC is 4 µg/mL (≈ 11.9 µM) in assay [3] (setting [23]), 2 µg/mL (≈ 5.93 µM) in [4] (setting [24]), 4 µg/mL (≈ 11.9 µM) in [4] (setting [32]) and 8 µg/mL (≈ 23.7 µM) in [5] (setting [25]).
For the molecule `CN[C@H](CC(C)C)C(=O)N[C@H]1C(=O)N[C@@H](CC(N)=O)C(=O)N[C@H]2C(=O)N[C@H]3C(=O)N[C@H](C(=O)N[C@H](C(=O)O)c4cc(O)cc(O)c4-c4cc3ccc4O)[C@H](O)c3ccc(c(Cl)c3)Oc3cc2cc(c3O[C@@H]2O[C@H](CO)[C@@H](O)[C@H](O)[C@H]2O[C@H]2C[C@](C)(N)[C@H](O)[C@H](C)O2)Oc2ccc(cc2Cl)[C@H]1O` [Vancomycin], the MIC in assay [20] is over 64 µg/mL; in assay [3] (Staphylococcus aureus, MP549MSRA), 1 µg/mL (≈ 0.69 µM); in assay [4] (setting [24]), 1 µg/mL (≈ 0.69 µM); in assay [5] (Escherichia coli) it was over 128 µg/mL.
As for Gentamicin, the MIC in [6] (setting [28]) is over 64 µg/mL; in [7] (setting [29]) it was over 64 µg/mL; in assay [1] (setting [30]), 64 µg/mL; in assay [2] (setting [31]) it was over 64 µg/mL; in assay [3] (S. aureus HAV#032, MP-549, MSR(A)) it was 1 µg/mL; in [4] (S. aureus #HAV002, ATCC BAA 977, iErmA, MRSA) it was 2 µg/mL. The MIC in [5] (E. coli HAV#038, ΔTolC) was 1 µg/mL.
